Results from patent publication US12241094B2, “Phenazine degrading agents and related compositions, methods and systems for interfering with viability of bacteria” (priority 2016, dated 2025).
Entries after “also recorded” stand apart in the source; their conditions may differ. Marks after values point to notes of the source that are not given here.

Key:
PodA30-162 = assay: Alternative substrate utilization by PodA; type: biochemical, Mycobacterium fortuitum; settings: for demethylation of alternative substrate by PodA30-162 (HPLC end point): 50 μg mL^−1 PodA30-162, 4 hours, dark
Protocol: Chemical formula diagrams of methylated substrates and their expected demethylated products, based on the prediction model, are shown, wherein arrows indicate demethylation catalyzed by PodA. Mixtures were analyzed by HPLC (right graphs) after 4 hours to determine the resulting products of each reaction. Standards for each product were run to determine retention times (indicated for each molecule with arrows). Only N-methylated phenazines were altered by incubation with PodA30-162. […] PMS, phenazine methosulfate.
Enzyme activity and analysis. PYO demethylation by PodA30-162 was first determined by HPLC analysis as described previously (6, 9). To detect formaldehyde evolution, 150 nM protein was mixed with 50 μM PYO in 1 mL of 20 mM Tris pH 7.6 amended with 200 μL Nash reagent (2 M ammonium acetate, 50 mM acetic acid, 20 mM acetylacetone) and incubated at 55° C. until the reaction proceeded to completion (37, 38). The products were determined by HPLC using the same method as used for phenazine quantification. To monitor the formation of reduced phenazine, protein and 50 μM PYO were placed into an anaerobic chamber (Coy Laboratory Products) under an atmosphere of H2/N2 (5:95) and left overnight before allowing the reaction to proceed. […] A BioTek Synergy 4 microplate reader (BioTek) plate reader in the anaerobic chamber was used to measure the emission spectrum of products with excitation at 250 nm. […] Reaction progress was monitored by measuring absorbance at 313 nm (40) every 0.5 seconds for 5 minutes. […] Kinetic parameters were calculated in Microsoft Excel using the Solver plug-in and fitting data to ideal Michaelis-Menton plots with non-linear regression of experimental data (41). For measurements of the rate of methoxy-PMS demethylation, 300 nM protein was used and methoxy-PMS loss from the reaction mixture was monitored at 500 nm wavelength. […] The stimulatory effects of flavin or 2-oxoglutarate addition was determined by adding 25 μM flavin or 2-oxoglutarate to 20 μM PYO and 15 nM PodA30-162 and monitoring the reaction. […]

[1] = tested on: P. aeruginosa PA14 biofilms; assay: Biofilm formation, surface coverage (chambered coverglass, DAPI); type: cell-based; settings: 5 hours; PodA30-162 2 μg mL^−1, DNase 20 μg mL^−1; vs. PodA-inactive
Protocol: Biofilm experiments. For all experiments involving inactivated PodA, either the E154A mutant or PodA30-162 that was subjected to a 1 hour treatment at 98° C. was used. To test the ability of PodA30-162 to degrade PYO in the presence of DNA, genomic DNA (gDNA) from P. aeruginosa PA14 was used in modified versions of previously described assays (59). For experiments using DNA pellets, 0.5 mg of gDNA was pelleted in the presence of 300 mM sodium acetate, pH 5.2 and 70% ethanol. Pellets were washed with 70% ethanol and dried. 200 μL of 800 μM PYO was added to the gDNA pellet without mixing and left to sit at room temperature for 6 hours to allow for diffusion of PYO into the gDNA pellet. The pellet was washed once with 70% EtOH, and submerged in a solution containing 10 mM Tris, pH 7.0 and 40% isopropanol. The pellet remained blue, consistent with an association of PYO with DNA. PodA30-162 was added to the isopropanol solution to a final concentration of 2 μg mL^−1 and left to sit for 3 hours to allow for the reaction to proceed. Tubes were imaged before and after PodA30-162 treatment. For experiments using solubilized gDNA, a 400 μg mL^−1 solution of gDNA was mixed with PYO and allowed to equilibrate for 6 hours. The PYO gDNA mixture was amended with 1 μg mL^−1 PodA30-162 and loss of PYO was monitored on a BioTek Synergy 4 microplate reader (BioTek) plate reader at 690 nm. Standards were included to quantify PYO loss over time. To assess biofilm formation in the presence of PodA30-162, biofilms were grown in Nunc Lab-Tek chambered coverglass slides (8-well, 0.8 cm^2 area, supplier #155411) using a modified protocol (22). PA14 was inoculated into succinate minimal medium and grown overnight to stationary phase. Cells were resuspended in fresh medium and diluted to a starting OD500 of 0.5 in succinate minimal medium. PodA30-162 (2 μg mL^−1, final concentration) or DNase (20 μg mL^−1) (22) was added and 250 μL was added to each well of the 8-well chambered coverglass. Cultures were grown for 5 hours at 37° C. and 100 rpm (Innova 44 shaking incubator, New Brunswick) in a humidified chamber. After incubation, liquid was removed from each well by drawing with a pipet tip placed in the corner of each well and chambers were washed twice with 400 μL of biofilm wash (Tris buffer, pH 7.6 and 100 mM NaCl) to remove planktonic and loosely bound cells. Attached biomass was stained by adding 450 μL biofilm wash containing 10 μg mL^−1 DAPI (4′,6-diamidino-2-phenylindole) (Santa Cruz Biotechnology). Surface associated biomass was imaged on a Leica TCS SPE confocal microscope with a ACS APO 40×/1.15 oil immersion objective. A 405 nm solid-state laser was used for excitation, and data was collected from 420-500 nm. […]

PA14 [2] = assay: Redox cycles over 7 days and support of survival (Table 1); type: cell-based, P. aeruginosa
[3] = oxidized form, values from references a, c, d; cited from earlier work
PA14 [4] = assay: Reduction of redox-active compounds by PA14 (Table 1); type: cell-based, P. aeruginosa
[5] = PYO demethylation by purified PodA30-162 and mutants (spectrophotometric/HPLC); type: biochemical; settings: PYO demethylation; 60 nM mutant protein
Protocol: Enzyme activity and analysis. PYO demethylation by PodA30-162 was first determined by HPLC analysis as described previously (6, 9). To detect formaldehyde evolution, 150 nM protein was mixed with 50 μM PYO in 1 mL of 20 mM Tris pH 7.6 amended with 200 μL Nash reagent (2 M ammonium acetate, 50 mM acetic acid, 20 mM acetylacetone) and incubated at 55° C. until the reaction proceeded to completion (37, 38). The products were determined by HPLC using the same method as used for phenazine quantification. To monitor the formation of reduced phenazine, protein and 50 μM PYO were placed into an anaerobic chamber (Coy Laboratory Products) under an atmosphere of H2/N2 (5:95) and left overnight before allowing the reaction to proceed. To generate reduced PYO and 1-OH-PHZ, 50 μM were mixed with 1 mM sodium dithionite. The formation of reduced phenazine products was assayed visually under UV illumination (39). A BioTek Synergy 4 microplate reader (BioTek) plate reader in the anaerobic chamber was used to measure the emission spectrum of products with excitation at 250 nm. To determine the activity of PodA30-162 in the presence of glycerol, salts, or varying pH, 30 nM protein was suspended in 500 μL buffer, 40 μM PYO was mixed with 2× solution containing the buffer of interest (500 μL), and solutions were preheated to 30 C. For pH range measurements, the following buffers were used (40 mM, adjusted with KOH): acetic acid, pH 4.9; MES, pH 5.4 and 5.7; HEPES, pH 6.1; Tris, pH 6.9 and 7.5; Bicine, pH 7.8, 8.3 and 8.7; CHES, pH 9.4. To measure reaction rates, cuvettes containing the 2×PYO solution were placed in a Evolution 260Bio UV-Vis spectrophotometer (Thermo Scientific) and 500 μL of 30 nM protein was added at time 0 (15 nM protein and 20 μM PYO, final concentration). Reaction progress was monitored by measuring absorbance at 313 nm (40) every 0.5 seconds for 5 minutes. To measure kinetic parameters (kcat, Km) 15 nM protein was used in a reaction buffer of Bicine, pH 7.8; reactions were monitored as before with measurements every 0.2 seconds. The rate from the first 10 seconds of the reaction was used for the determination of kinetic parameters. Kinetic parameters were calculated in Microsoft Excel using the Solver plug-in and fitting data to ideal Michaelis-Menton plots with non-linear regression of experimental data (41). For measurements of the rate of methoxy-PMS demethylation, 300 nM protein was used and methoxy-PMS loss from the reaction mixture was monitored at 500 nm wavelength. Methoxy-PMS was purchased from TCI America. For assays with mutant proteins, 60 nM protein was used. The stimulatory effects of flavin or 2-oxoglutarate addition was determined by adding 25 μM flavin or 2-oxoglutarate to 20 μM PYO and 15 nM PodA30-162 and monitoring the reaction. Experiments testing alternative substrates were carried out using 1 mL reaction volumes containing 20 mM Tris (pH 7.6) and 50 μg mL^−1 PodA30-162. Alternative substrates tested were 10-methylphenothiazine (AlfaAesar), phenazine methosulfate (AlfaAesar), methoxyphenazine methosulfate (TCI America), and 4-keto-N-ethylphenazine. 4-keto-N-ethylphenazine was synthesized from phenazine ethosulfate (Sigma-Aldrich) by incubating under fluorescent light overnight followed by purification by HPLC as described (6, 42). As phenazine methosulfate is light sensitive and spontaneously converts to PYO in the presence of light, all reactions were carried out in the dark, and activity was assessed by end point analysis by HPLC after 4 hours (9).

Molecule	# of Redox cycles over 7 days (PA14 [2])	Support survival? (PA14 [2])	E^0, (vs. NHE) [3]	Reduction by PA14? (PA14 [4])	also measured
CN1c2ccccc2Sc2ccccc21 [10-methylphenothiazine]					demethylation of alternative substrate by PodA30-162 (HPLC end point) (PodA30-162): not demethylated or de-ethylated
DNase [reference compound]					biofilm surface coverage [1]: inhibited biofilms; also recorded: decreased surface coverage
COS(=O)(=O)[O-].COc1cccc2c1nc1ccccc1[n+]2C [methoxy-PMS, methoxyphenazine methosulfate]					methoxy-PMS demethylation over time (PodA30-162; 300 nM protein, 500 nm): initial burst of activity followed by a slower steady state; also recorded: reaction rate slows significantly after an initial burst
C[n+]1ccc(-c2cc[n+](C)cc2)cc1 [Paraquat]	No cycle	No	−446^e mV	No	
CCn1c2cccc(=O)c-2nc2ccccc21 [4-keto-N-ethylphenazine]					demethylation of alternative substrate by PodA30-162 (HPLC end point) (PodA30-162): not demethylated or de-ethylated
O=C(O)c1cccc2nc3ccccc3nc12 [PCA, Phenazine-1-carboxylate]	22	Yes	−114^a mV	Yes	
O=C1c2ccc(S(=O)(=O)O)cc2C(=O)c2ccc(S(=O)(=O)O)cc21 [2,6-AQDS]	No cycle	No	−184^d mV	Yes (very slowly)	
Y156F (protein) MTGKTKPAIIGGVAITALAAAGLGVWLFTDGRGGRSTTEPVTMTLDVKNDQVAKHDFGKPGMDVGDMDIFSDILSVDGKQVGYDGGACFFTNVTPDNPMTYCELTIHLDAGEIFARSLTPHTLAPFTMAITGGTGEYANSKGELTVSGVATPDEKFELKLTK					wild type activity [5]: ~25%
